Experimental findings from the NIST ThermoML archive (doi:10.1016/j.fluid.2012.01.018) are described below.

By viscosity is commonly meant the internal friction of a fluid under shear.

The conditions of the data set: 101.33 kPa, Liquid, Falling or rolling sphere viscometry.

Molecules are shown by their SMILES. Numbers after ± are expanded uncertainties.

`COCC[N+]1(C)CCCC1.O=S(=O)([N-]S(=O)(=O)C(F)(F)F)C(F)(F)F`: the viscosity is given as 54.52 ± 1.1 mPa·s (298.15 K); 36.94 ± 0.8 mPa·s (308.15 K); 26.41 ± 0.57 mPa·s (318.15 K); 18.23 ± 0.39 mPa·s (328.15 K); 14.06 ± 0.3 mPa·s (338.15 K); 11.07 ± 0.24 mPa·s (348.15 K).
Consider `COCC[N+]1(C)CCOCC1.O=S(=O)([N-]S(=O)(=O)C(F)(F)F)C(F)(F)F`, for which the viscosity reads like this: (298.15 K) 306.1 ± 19 mPa·s; (308.15 K) 155.9 ± 6.4 mPa·s; (318.15 K) 90.68 ± 2.5 mPa·s; (328.15 K) 57.23 ± 1.2 mPa·s; (338.15 K) 38.69 ± 0.84 mPa·s; (348.15 K) 27.54 ± 0.6 mPa·s.
For `COCC[N+]1(C)CCCCC1.O=S(=O)([N-]S(=O)(=O)C(F)(F)F)C(F)(F)F`, the viscosity (298.15 K) is listed as 102.6 ± 3.1 mPa·s; the viscosity (308.15 K) is given as 63.22 ± 1.4 mPa·s; the viscosity (318.15 K) was 41.92 ± 0.91 mPa·s; the viscosity (328.15 K) worked out at 29.43 ± 0.64 mPa·s; the viscosity (338.15 K) is recorded as 21.53 ± 0.46 mPa·s; the viscosity (348.15 K) is listed as 16.32 ± 0.35 mPa·s.
